In patent US20230407243A1, “GENETIC PLATFORM TO INVESTIGATE THE FUNCTIONS OF BACTERIAL DRUG EFFLUX PUMPS” (priority 2022, published 2023):
Where two headings read alike, the source gives them in different places.

Assays:
Assay type in all cases: cell-based, Escherichia coli
[1] = test system: E. coli ΔtolC; test: microbe, parasite or virus in culture
In short: (§1)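 Steps: LB overnight culture at 37 °C; resuspension in PBS to OD600 ~1.0; 1/2000 dilution in MHB II; addition to 2-fold serial compound dilutions (duplicate); 18 h shaking incubation at 37 °C; OD600 read, with pre-read subtracted.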

[2] = test system: wild-type E. coli K-12 str. BW25113; test: microbe, parasite or virus in culture; settings: Escherichia coli, BW25113, technical duplicate
In short: as §1

[3] = test system: E. coli EKO-35; test: microbe, parasite or virus in culture; settings: for MIC: Escherichia coli, EKO35, technical duplicate
In short: as §1

[4] = test system: EKO-35 araC::mdtBC Pore; test: MIC susceptibility profiling, porinated efflux platform
In short: (§2)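 Strains carry the fhuA ΔC/Δ4L pore integrated between glmS and pstS under a constitutive promoter, with pore activity checked by vancomycin susceptibility. Overnight LB cultures were adjusted in PBS pH 7.4 to OD600 ~1.0 and diluted 1/2000 into MHB II. 2-fold compound titrations were read by OD600 after 18 h at 37 °C.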

[5] = test system: EKO-35 araC::macAB Pore; test: as above
In short: as §2

[6] = test system: EKO-35 araC::emrAB Pore; test: as above
In short: as §2

[7] = test system: EKO-35 araC::mdtEF Pore; test: as above
In short: as §2

[8] = test system: EKO-35 araC::acrB Pore; test: as above
In short: as §2

[9] = test system: EKO-35 araC::acrBD408A Pore; test: as above
In short: as §2

[10] = test system: EKO-35 araC::mexCD Pore; test: as above
In short: as §2

[11] = test system: EKO-35 araC::acrEF Pore; test: as above
In short: as §2

[12] = test system: EKO-35 araC::emrKY Pore; test: as above
In short: as §2

[13] = test system: EKO-35 araC::acrD Pore; test: as above
In short: as §2

[14] = test system: wild-type (WT) K-12-Pore; test: microbe, parasite or virus in culture; settings: Escherichia coli, technical duplicate
In short: as §2

[15] = test system: ΔtolC-Pore; test: microbe, parasite or virus in culture
In short: as §2

[16] = test system: EKO-35 araC::acrBD408A; test: MIC susceptibility profiling, efflux platform
In short: as §1

[17] = test system: EKO-35 araC::acrEF; test: MIC susceptibility profiling, efflux platform
In short: as §1

[18] = test system: EKO-35 araC::mdtBC; test: MIC susceptibility profiling, efflux platform
In short: as §1

[19] = test system: EKO-35-Pore; test: MIC susceptibility profiling, porinated strain; settings: for MIC: Escherichia coli, technical duplicate
In short: as §2

CN(C)c1ccc(O)c2c1C[C@H]1C[C@H]3[C@H](N(C)C)C(O)=C(C(N)=O)C(=O)[C@@]3(O)C(O)=C1C2=O [minocycline]
MIC ([1]; Escherichia coli, 18 h, read-out: Minimum Inhibitory Concentration, ΔtolC): 0.098 µg/mL
Minimum inhibitory concentration (MIC), ΔtolC ([1]; Table 10, without pore, technical duplicate): 0.098 µg/mL
MIC ([2]; Table 10, without pore, read-out: Minimum inhibitory concentration (MIC), K-12): 0.781 µg/mL
MIC ([2]; Table 13A, non-porinated, read-out: Minimum Inhibitory Concentration, K-12): 0.781 µg/mL
Fold change of MICs ([3]; EKO-35 compared to EKO-35 (reference)): 1 fold
MIC ([3]; Table 10, without pore, read-out: Minimum inhibitory concentration (MIC), EKO-35): 0.049 µg/mL
MIC ([3]; Table 13A, non-porinated, read-out: Minimum Inhibitory Concentration, EKO-35): 0.049 µg/mL
Fold changes of MICs ([4]; EKO-35 araC::mdtBC Pore compared to EKO-35-Pore): 1 fold
MIC ([4]; Escherichia coli, EKO-35 araC::mdtBC Pore, technical duplicate, read-out: Minimum inhibitory concentration): 0.049 µg/mL
Fold changes of MICs ([5]; EKO-35 araC::macAB Pore compared to EKO-35-Pore): 1 fold
MIC ([5]; Escherichia coli, EKO-35 araC::macAB Pore, technical duplicate, read-out: Minimum inhibitory concentration): 0.049 µg/mL
Fold changes of MICs ([6]; EKO-35 araC::emrAB Pore compared to EKO-35-Pore): 1 fold
MIC ([6]; Escherichia coli, EKO-35 araC::emrAB Pore, technical duplicate, read-out: Minimum inhibitory concentration): 0.049 µg/mL
Fold changes of MICs ([7]; EKO-35 araC::mdtEF Pore compared to EKO-35-Pore): 2 fold
MIC ([7]; Escherichia coli, Table 14A, porinated, technical duplicate, read-out: Minimum inhibitory concentration, EKO-35 araC::mdtEF Pore): 0.098 µg/mL
Fold changes of MICs ([8]; EKO-35 araC::acr-B Pore compared to EKO-35-Pore): 8 fold
MIC ([8]; Escherichia coli, Table 14A, porinated, technical duplicate, read-out: Minimum inhibitory concentration, EKO-35 araC::acrB Pore): 0.391 µg/mL
Fold changes of MICs ([9]; EKO-35 araC::acrBD408A Pore compared to EKO-35-Pore): 1 fold
MIC ([9]; Escherichia coli, EKO-35 araC::acrBD408A Pore, technical duplicate, read-out: Minimum inhibitory concentration): 0.049 µg/mL
Fold changes of MICs ([10]; EKO-35 araC::mexCD Pore compared to EKO-35-Pore): 1 fold
MIC ([10]; Escherichia coli, EKO-35 araC::mexCD Pore, technical duplicate, read-out: Minimum inhibitory concentration): 0.049 µg/mL
Fold changes of MICs ([11]; EKO-35 araC::acrEF Pore compared to EKO-35-Pore): 2 fold
MIC ([11]; Escherichia coli, Table 14A, porinated, technical duplicate, read-out: Minimum inhibitory concentration, EKO-35 araC::acrEF Pore): 0.098 µg/mL
Fold changes of MICs ([12]; EKO-35 araC::emrKY Pore compared to EKO-35-Pore): 1 fold
MIC ([12]; Escherichia coli, EKO-35 araC::emrKY Pore, technical duplicate, read-out: Minimum inhibitory concentration): 0.049 µg/mL
Fold changes of MICs ([13]; EKO-35 araC::acrD Pore compared to EKO-35-Pore): 2 fold
MIC ([13]; Escherichia coli, Table 14A, porinated, technical duplicate, read-out: Minimum inhibitory concentration, EKO-35 araC::acrD Pore): 0.098 µg/mL
MIC ([14]; Table 10, with pore, read-out: Minimum inhibitory concentration (MIC), Pore K-12): 0.781 µg/mL
MIC ([14]; Table 14A, porinated, read-out: Minimum inhibitory concentration, K-12 (WT)-Pore): 0.781 µg/mL
MIC ([15]; Escherichia coli, 18 h, read-out: Minimum inhibitory concentration, ΔtolC-Pore): 0.098 µg/mL
Minimum inhibitory concentration (MIC), Pore ΔtolC ([15]; Table 10, with pore, technical duplicate): 0.098 µg/mL
Fold change of MICs ([16]; EKO-35 araC::acrBD408A compared to EKO-35): 1 fold
MIC ([16]; Escherichia coli, Table 13B, non-porinated, technical duplicate, read-out: Minimum Inhibitory Concentration, EKO-35 araC::acrBD408A): 0.049 µg/mL
Fold change of MICs ([17]; EKO-35 araC::acrEF compared to EKO-35): 2 fold
MIC ([17]; Escherichia coli, Table 13A, non-porinated, technical duplicate, read-out: Minimum Inhibitory Concentration, EKO-35 araC::acrEF): 0.098 µg/mL
Fold change of MICs ([18]; EKO-35 araC::mdtBC compared to EKO-35): 1 fold
MIC ([18]; Escherichia coli, Table 13B, non-porinated, technical duplicate, read-out: Minimum Inhibitory Concentration, EKO-35 araC::mdtBC): 0.049 µg/mL
Fold changes of MICs ([19]; EKO-35-Pore compared to EKO-35-Pore (reference)): 1 fold
MIC ([19]; Table 10, with pore, read-out: Minimum inhibitory concentration (MIC), Pore EKO-35): 0.049 µg/mL
MIC ([19]; Table 14A, porinated, read-out: Minimum inhibitory concentration, EKO-35-Pore): 0.049 µg/mL
